Source: patent publication US20030199692A1, “Propanoic acid derivatives that inhibit the binding of integrins to their receptors” (priority 1999, published 2003)

Legend:
α4β1 integrin = target: T1, α4β1 integrin (Homo sapiens, UniProt P05556+P13612); assay: Inhibition of adhesion of calcein AM-labeled Ramos cells to CS1 (fibronectin) peptide-conjugated ovalbumin; assay type: cell-based; conditions: Ramos cell adhesion to CS1-conjugated ovalbumin, 30 minutes at 37° C.
T1 construct: endogenous in cells; host or cells: Ramos cells
How it was run: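 Calcein AM-labeled Ramos cells (2.5×10^5/well) added with or without compound to plates coated with CS1 peptide-ovalbumin conjugate in TBS containing 1 mM each MgCl2, CaCl2, MnCl2; 30 min at 37° C. Adherent cells lysed and quantified fluorometrically after washes; IC50 as dose for 50% inhibition, or percent inhibition at 100 μM.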

T1 sequence (P13612 34-1032): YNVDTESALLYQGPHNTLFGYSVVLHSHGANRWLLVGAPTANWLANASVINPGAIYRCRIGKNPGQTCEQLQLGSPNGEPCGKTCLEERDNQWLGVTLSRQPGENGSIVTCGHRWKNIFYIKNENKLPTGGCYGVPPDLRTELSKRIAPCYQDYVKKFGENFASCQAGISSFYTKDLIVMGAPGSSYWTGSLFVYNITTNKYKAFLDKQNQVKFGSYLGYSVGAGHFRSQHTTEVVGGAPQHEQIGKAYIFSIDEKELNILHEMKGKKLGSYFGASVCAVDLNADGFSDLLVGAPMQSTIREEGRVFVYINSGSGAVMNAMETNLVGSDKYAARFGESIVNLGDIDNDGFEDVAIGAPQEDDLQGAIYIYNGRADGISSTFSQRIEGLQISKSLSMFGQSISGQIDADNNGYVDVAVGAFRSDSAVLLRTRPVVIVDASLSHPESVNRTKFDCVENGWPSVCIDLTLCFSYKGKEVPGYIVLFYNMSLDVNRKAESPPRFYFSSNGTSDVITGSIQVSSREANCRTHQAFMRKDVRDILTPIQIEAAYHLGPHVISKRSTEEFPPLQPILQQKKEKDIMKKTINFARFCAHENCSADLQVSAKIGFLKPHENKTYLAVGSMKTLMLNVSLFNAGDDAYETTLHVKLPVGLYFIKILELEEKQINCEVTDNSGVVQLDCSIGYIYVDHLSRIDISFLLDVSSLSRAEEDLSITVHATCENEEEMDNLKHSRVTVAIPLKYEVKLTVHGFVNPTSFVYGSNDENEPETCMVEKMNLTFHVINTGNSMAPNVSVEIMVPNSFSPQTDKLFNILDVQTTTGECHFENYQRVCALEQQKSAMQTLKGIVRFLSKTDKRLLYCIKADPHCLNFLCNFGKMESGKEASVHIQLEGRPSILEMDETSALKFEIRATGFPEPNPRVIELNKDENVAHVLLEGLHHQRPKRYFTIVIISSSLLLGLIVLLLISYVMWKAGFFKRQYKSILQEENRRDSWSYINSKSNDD
T1 sequence (P05556 21-798): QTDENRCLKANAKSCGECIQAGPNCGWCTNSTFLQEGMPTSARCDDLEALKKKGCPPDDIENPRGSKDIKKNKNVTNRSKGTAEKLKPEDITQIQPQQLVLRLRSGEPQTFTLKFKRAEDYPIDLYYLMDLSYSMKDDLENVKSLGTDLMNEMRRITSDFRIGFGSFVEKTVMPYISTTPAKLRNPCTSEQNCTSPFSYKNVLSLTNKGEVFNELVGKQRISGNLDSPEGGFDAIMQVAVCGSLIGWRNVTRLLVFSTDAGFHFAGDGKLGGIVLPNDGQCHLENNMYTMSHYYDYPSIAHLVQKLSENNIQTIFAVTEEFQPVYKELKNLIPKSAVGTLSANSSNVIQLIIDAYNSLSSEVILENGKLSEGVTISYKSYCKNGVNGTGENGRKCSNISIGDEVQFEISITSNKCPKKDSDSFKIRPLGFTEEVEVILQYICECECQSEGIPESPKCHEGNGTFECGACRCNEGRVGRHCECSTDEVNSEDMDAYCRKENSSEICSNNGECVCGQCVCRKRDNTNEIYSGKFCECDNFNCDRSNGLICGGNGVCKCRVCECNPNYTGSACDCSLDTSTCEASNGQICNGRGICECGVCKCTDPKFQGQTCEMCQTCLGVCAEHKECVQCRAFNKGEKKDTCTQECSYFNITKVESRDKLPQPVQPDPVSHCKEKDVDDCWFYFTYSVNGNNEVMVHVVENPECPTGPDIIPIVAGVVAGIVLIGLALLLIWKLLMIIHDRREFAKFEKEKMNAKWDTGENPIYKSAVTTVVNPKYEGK

SMILES	IC50 (α4β1 integrin; Table 3)	melting point	IC50 (α4β1 integrin; Table 4)
CCCCC(C(=O)N[C@@H](CC(=O)O)c1ccc2c(c1)OCO2)N1C(=O)N(Cc2ccccc2)C(=O)C1(C)C (stereo partly drawn) [(3S)-3-(1,3-benzodioxol-5-yl)-3-({2-[5,5-dimethyl-2,4-dioxo-3-(phenylmethyl)tetrahydro-1H-imidazol-1-yl]hexanoyl}amino)propanoic acid]	20000 nM	53 to 55 °C	–
CCCCC(C(=O)N[C@@H](CC(=O)O)c1cccc(OC(C)C)c1)n1cc(C)cc(Cc2c(Cl)cc(Cl)cc2OC)c1=O (stereo partly drawn) [(3S)-3-({2-[3-{[2,4-dichloro-6-(methyloxy)phenyl]methyl}-5-methyl-2-oxo-1(2H)-pyridinyl]hexanoyl}amino)-3-{3-[(1-methylethyl)oxy]phenyl}propanoic acid]	–	–	275 nM
O=C(O)C[C@H](NC(=O)Cc1cccc(Oc2ccccc2)c1)c1ccc2c(c1)OCO2 [(3S)-3-(1,3-benzodioxol-5-yl)-3-({2-[3-(phenyloxy)phenyl]acetyl}amimo)-propanoic acid]	> 100000 nM	–	–
CCCCC(C(=O)N[C@@H](CC(=O)O)c1cccc(OCC)c1)n1cc(C)cc(Cc2ccccc2)c1=O (stereo partly drawn) [(3S)-3-{[2-(3-benzyl-5-methyl-2-oxopyridin-1(2H)-yl)hexanoyl]amino}-3-(3-ethoxyphenyl)propanoic acid]	–	–	35 nM
CCCCC(C(=O)N[C@@H](CC(=O)O)c1cccc(OC(C)C)c1)n1cc(C)cc(Cc2ccccc2OCC)c1=O (stereo partly drawn) [(3S)-3-({2-[3-(2-ethoxybenzyl)-5-methyl-2-oxopyridin-1(2H)-yl]hexanoyl}amino)-3-(3-isopropoxyphenyl)propanoic acid]	–	–	19 nM
CCCC[C@H](C(=O)N[C@@H](CC(=O)O)c1ccc2c(c1)OCO2)n1cc(C)c(O)c(Cc2ccccc2)c1=O [(3S)-3-(1,3-benzodioxol-5-yl)-3-{[(2R)-2-(3-benzyl-4-hydroxy-5-methyl-2-oxopyridin-1(2H)-yl)hexanoyl]amino}propanoic acid]	–	–	2000 nM
CCCCC(C(=O)N[C@@H](CC(=O)O)c1ccccc1)n1cc(C)cc(Cc2ccccc2)c1=O (stereo partly drawn) [(3S)-3-{[2-(3-benzyl-5-methyl-2-oxopyridin-1(2H)-yl)hexanoyl]amino}-3-phenylpropanoic acid]	–	–	10 nM
CCCCC(C(=O)N[C@@H](CC(=O)O)c1cccc(OC(C)C)c1)n1cc(C)cc(Cc2ccc(F)cc2Cl)c1=O (stereo partly drawn) [(3S)-3-({2-[3-[(2-chloro-4-fluorophenyl)methyl]-5-methyl-2-oxo-1(2H)-pyridinyl]hexanoyl}amino)-3-{3-[(1-methylethyl)oxy]phenyl}propanoic acid]	–	–	17 nM
